# Assay results from patent US20240148674A1, “PHARMACEUTICALLY ACCEPTABLE SALTS OF MESDOPETAM AND USES THEREOF” (priority 2020, published 2024).
# Counter-ions that a name gives are not always drawn. Like-named read-outs stand apart in the source and are kept apart here.
# Tests used:
# [1] = as disclosed in PCT/EP2020/064046; cited from earlier work
# [2] = system: unilateral 6-OHDA-lesioned rats; test: Rodent unilateral 6-OHDA lesion model of L-DOPA sensitization, rotation test by ROTORAT; assay type: in vivo, Sprague Dawley rats; details: for Contralateral turns, test compound given alone: without L-DOPA, 0-2.5 h
# Description: The unilateral 6-OHDA lesion model is an established animal model of Parkinson's disease (see e.g. Exp. Neurol. 194: 66-75 (2005)). The neurotoxin 6-OH-DA is injected in the medial forebrain bundle (MFB), resulting in depletion of dopamine e.g. in the striatum. Upon repeated administration of L-DOPA, the animals with such a lesion display sensitization to L-DOPA, captured by rotational behaviour measured as associated with the development of LIDs. The effects of IRL790 (as a HCl-salt) on fully established AIMs have been published previously (J. Pharmacol. Exp. Ther. 374: 113-125 (2020)). Thus, in this article the administration of IRL790 was […]. […] The co-administration of said test compound with the L-DOPA was not preceded by treatment with L-DOPA. The clinically used antidyskinetic compound amantadine (as a HCl-salt) together with L-DOPA was used for comparison.
# For the evaluation of sensitization to L-DOPA the rodent unilateral 6-OH-DA-lesion model was used. Adult 150˜200 g female Sprague Dawley rats (Charles River) were housed in temperature- and humidity-controlled rooms (20° C., 53% humidity) with a 12 h dark/light cycle. The rats had access to standard food pellets and water ad libitum. The experiments were approved by the local ethical committee at Karolinska Institute (Stockholm North Ethical Committee, N1525/2017) and conducted in accordance with the European Communities Council Directive of 24 Nov. 1986 (86/609/EEC).
# Experimental procedures including unilateral 6-OH-DA-lesions and behavioral assessments were carried as follows. Rats were anesthetized using a mixture of ketamine (100 mg/kg, i.p.; Parke-Davis, Boxmeer, The Netherlands) and xylazine (10 mg/kg, i.p.; Bayer, Kiel, Germany), pretreated with a mixture of desipramine (25 mg/kg, i.p.; Sigma-Aldrich) and pargyline (5 mg/kg, i.p.; Sigma-Aldrich) 30 minutes before lesioning to prevent uptake of 6-OHDA into noradrenergic neurons, and to prevent extracellular metabolism of 6-OHDA, respectively. Rats were placed in a stereotaxic frame (David Kopf Instruments, KOPF®, USA) and injected with temgesic (0.1 mg/kg, s.c., Apoteket, Sweden) before surgery; 2 μl 6-OHDA (5 μg/μl in saline containing 0.02% w/v ascorbic acid, Sigma-Aldrich) was injected into the right MFB, stereotaxic coordinates AP: −2.5 mm, ML: −2.0 mm, DV: −8.5 mm vs. bregma and dural surface (The Rat Brain in Stereotaxic Coordinates 6th Edition, George Paxinos and Charles Watson, 2007) in order to selectively lesion dopaminergic cells in the right brain hemisphere. Post-operative analgesia (Temgesic, s.c.) was administered twice within 48 hours after surgery. Two weeks following surgery, rats were treated with apomorphine (1 mg/kg i.p.; Sigma-Aldrich) to verify successful lesioning. […]
# [3] = system: Parkinson's patients with L-DOPA induced dyskinesia (LIDs); test: Human clinical study, 24-hour patient home diaries (good ON time); assay type: in vivo
# Description: Home diaries have gained wide acceptance as endpoints for clinical development of therapeutics aiming to reduce treatment-related motor complications. Motor fluctuations are associated with compromise in activities of daily living and health-related quality of life. In clinical trials performed by Integrative Research Laboratories Sweden AB patients record their 24-hours motor function in 30-minute intervals, beginning at midnight. For each 30-minute interval the patient rates the state he or she has been in for the past 30 minutes; OFF, ON without troublesome dyskinesia or ON with troublesome dyskinesia. The patient also denoted the time when he or she has been asleep.
# In general, an “OFF” time reduction or “good ON-time” increase of 1 hour may be considered clinically significant and has been used as an assumption in power calculations in clinical trials. Therefore, it can be assumed that shift towards more “good ON-time” of a minimum of 1-hour daily represents a clinically meaningful effect, considering the total time spent in the daily ON state (ON with and without troublesome dyskinesia) is not negatively affected by the treatment.
# A valid diary is defined as not having more than 2 hours of invalid data entries (4 invalid entries) over a given 24-hour period. An invalid diary entry is defined as more than one entry recorded in each half-hour interval, an unreadable entry, or the absence of an entry in each half-hour interval. The average diary information from 3 valid diaries (if available) for each visit will be used to calculate diary-based efficacy endpoints. If there are only 2 valid diaries for a visit, then the average information from the 2 valid diaries will be used. If only one diary is valid, information from the single valid diary will be used. If no valid diaries were available for a patient visit, then the diary information was considered missing.
# At run-in and following treatment patients were asked to complete home diaries describing their motor status in 30-minute intervals for 24 hours. […]
# [4] = Hygroscopicity test, weighed samples kept at varied humidity at 30° C. for one week; assay type: physicochemical; details: for Weight difference (%): 30° C., one week; for Hygroscopicity, in words: any tested relative humidity
# Description: Hygroscopicity test of the L-tartaric salt of [2-(3-fluoro-5-methanesulfonylphenoxy)-ethyl] (propyl)amine was performed by keeping exact weight samples of the salt at varied humidity at 30° C. After one week, the samples were weighed again and based on the original weight the percentage weight difference was calculated.
# [5] = system: immediate early response genes (IEGs) cfos and arc; test: Striatal gene expression analysis by qPCR in 6-OHDA-lesioned rats; assay type: in vivo
# Description: Data is expressed as relative gene expression and was statistically evaluated by two-way ANOVA (analysis of variance).
# Data is expressed as relative gene expression and was statistically evaluated by two-way ANOVA (analysis of variance). * denotes p<0.05, ** denotes p<0.01, and *** denotes p<0.001.
# Whenever L-DOPA was used in this study, it was administered together with benzerazid HCl-salt 7.5 mg/kg i.p, which is a standard procedure when L-DOPA is administered to rats in the unilateral 6-OHDA lesion model. Chronic treatment of four groups of rats was started with either: (1) L-DOPA (10 mg/kg), (2) [2-(3-fluoro-5-methanesulfonyl-phenoxy)ethyl](propyl)amine tartaric acid salt (3 mg/kg s.c.), (3) L-DOPA (10 mg/kg)+[2-(3-fluoro-5-methanesulfonyl-phenoxy)ethyl](propyl)amine tartaric acid salt (3 mg/kg s.c.), or (4) the corresponding vehicle (saline, i.p.) given once daily for 2 weeks. Additionally, two groups of rats were treated with either amantadine HCl salt (40 mg/kg ip), or L-DOPA (10 mg/kg)+amantadine HCl salt (40 mg/kg i.p.), once daily for 14 days. Behavioural assessments were performed on Day 1, Day 7, and Day 14 of chronic treatment. Thus, on Days 1, 7 and 14 contralateral rotations (i.e. rotations in the opposite direction to the side of the 6-OH-DA-lesion) were measured. Contralateral rotations were measured by Rotorat over 2.5 hours after the administration of test compound. […]
# [6] = Description: The temperature was 25° C. using step intervals of 10% between 0% and 95% RH in two consecutive cycles.
# [7] = system: adverse involuntary movements (AIMs); details: J. Pharmacol. Exp. Ther. 374: 113-125, July 2020; cited from earlier work
# [8] = once daily 2 weeks, Example 7 3 mg/kg s.c., amantadine HCl salt 40 mg/kg i.p., Day 1, 7, 14
compound,measurement,setting,value
CCCNCCOc1cc(F)cc(S(C)(=O)=O)c1 [tartaric acid salt of [2-(3-fluoro-5-methanesulfonylphenoxy)-ethyl] (propyl)amine],"Hygroscopicity, in words",[1],non-hygroscopic
"CCCNCCOc1cc(F)cc(S(C)(=O)=O)c1 [Example 7, L-tartaric Acid Salt of [2-(3-fluoro-5-methanesulfonylphenoxy)ethyl](propyl)amine]","Contralateral rotational behavior Day 7 or Day 14 vs Day 1, co-treated with L-DOPA (sensitization)","[2]; co-administered with L-DOPA 10 mg/kg once daily 2 weeks, Example 7 3 mg/kg s.c., amantadine HCl salt 40 mg/kg i.p.",no significant difference
same,"Contralateral turns, test compound given alone",[2]; [8],no contralateral turns
same,Improvement in good ON time (mean values),"[3]; 5 mg or less (2.5 mg in some patients) twice-daily (b.i.d.), 9 patients",2.1 h
same,Improvement in good ON time (mean values),"[3]; 7.5 mg twice-daily (b.i.d.), 8 patients",5.6 h
same,Improvement in good ON time (mean values),"[3]; 10 mg or more (12.5 mg in some patients) twice-daily (b.i.d.), 20 patients",1.4 h
same,Weight difference (%),[4]; Relative Humidity 0 %,−0.26%
same,Weight difference (%),[4]; Relative Humidity 6 %,0.00%
same,Weight difference (%),[4]; Relative Humidity 11 %,−0.06%
same,Weight difference (%),[4]; Relative Humidity 22 %,0.12%
same,Weight difference (%),[4]; Relative Humidity 33 %,−0.18%
same,Weight difference (%),[4]; Relative Humidity 45 %,−0.13%
same,Weight difference (%),[4]; Relative Humidity 56 %,−0.15%
same,Weight difference (%),[4]; Relative Humidity 73 %,−0.24%
same,Weight difference (%),[4]; Relative Humidity 75 %,−0.07%
same,Weight difference (%),[4]; Relative Humidity 83 %,0.06%
same,Weight difference (%),[4]; Relative Humidity 97 %,−0.08%
same,"Hygroscopicity, in words",[4],very low hygroscopicity
same,"Hygroscopicity, in words",[4]; listed as L-tartaric acid salt,not hygroscopic at any relative humidities
same,Effect on L-DOPA-induced increase of striatal cfos and arc expression,"[5]; combination with L-DOPA, 14 days, Example 7 3 mg/kg",attenuated
"CCCNCCOc1cc(F)cc(S(C)(=O)=O)c1.Cl [Example 1 of WO 2012/143337, hydrochloric acid salt of [2-(3-fluoro-5-methanesulfonylphenoxy)-ethyl](propyl)amine]",Weight gained,"[6]; 95% relative humidity and 25° C., DVS",approximately 3%
same,"Hygroscopicity, in words",[6]; high relative humidities,hygroscopic at high relative humidities
"CCCNCCOc1cc(F)cc(S(C)(=O)=O)c1 [Example 2, [2-(3-fluoro-5-methanesulfonylphenoxy)ethyl](propyl)amine]",Adverse involuntary movements (AIMs),[7],dose-dependently reduced
"N[C@@H](Cc1ccc(O)c(O)c1)C(=O)O [L-DOPA, L-3,4-dihydroxyphenylalanine, reference compound]","Contralateral rotational behavior over time, L-DOPA alone","[2]; L-DOPA 10 mg/kg with benzerazid 7.5 mg/kg i.p., once daily 2 weeks, Day 1, 7, 14",increasing contralateral rotational behavior
same,"Striatal expression of IEGs cfos and arc, L-DOPA treatment","[5]; L-DOPA, 14 days of treatment, relative gene expression",significantly increased
"NC12CC3CC(CC(C3)C1)C2 [amantadine HCl salt, amantadine, reference compound]","Contralateral turns, test compound given alone",[2]; [8],no contralateral turns
